Data on three compounds can be found in paper doi:10.1101/2025.01.07.631748, “Strategic Modulation of Polarity and Viscosity Sensitivity of Bimane Molecular Rotor-Based Fluorophores for Imaging α-Synuclein” (bioRxiv, 2025).

In experiment [1] the target is T1, α-synuclein (αS) fibrils (Homo sapiens, UniProt P37840).
T1 construct: gene SNCA
Kind of experiment: fluorescence turn-on binding titration with αS fibrils.

The target of experiment [2] is T1, α-synuclein (αS) fibrils. Nature of the experiment: fluorescence competition binding with 3c and 4a; fluorescence turn-on.

With `Cc1c(C)n2c(/C=C/c3ccc(N4CCC4)cc3)c(C)c(=O)n2c1=O` [3d, RBF 3d], in experiment [1], the Kd was 3d and 3e, with cyclic amines, showed reduced affinity.
Take `Cc1ccc2c(c1)sc(-c1ccc(N(C)C)cc1)[n+]2C` [ThT, Thioflavin-T]: the “fluorescence competition binding with 3c and 4a; fluorescence turn-on” value in experiment [2] was “both 3c and 4a competed with the promiscuous binder ThT, but that some ThT emission remained at saturating concentrations”.
For `Cc1c(C)n2c(/C=C/c3ccc(N4CCOCC4)cc3)c(C)c(=O)n2c1=O` [3e, RBF 3e], the Kd in experiment [1] is 3d and 3e, with cyclic amines, showed reduced affinity.
